Experimental data from publication PMC12336824 (The Journal of Biological Chemistry, 2025).
In brackets after ≈: the same amount, converted by molar mass. Like-named read-outs stand apart in the source and are kept apart here.

What was measured:
[1] = test system: V. cholerae wildtype; parameters: species or system mice; conditions: mouse, in vivo
[2] = molecular target: V. cholerae NQR complex (Vibrio cholerae serotype O1, UniProt Q9KPS2+Q9X4Q6); assay: biochemical; conditions: read-out: inhibition of the ubiquinone reductase activity
[3] = test system: V. cholerae O395; assay: microbe, parasite or virus in culture; assay type: cell-based; conditions: for effect on growth of V. cholerae: 50 μM, midlogarithmic phase (8 h), LB medium; for MIC50: 8 h
[4] = test system: NADH dehydrogenases of V. cholerae membranes; assay type: biochemical; conditions: 50 μM, 200 μM NADH
[5] = test system: terminal oxidases; assay type: biochemical; conditions: 50 μM inhibitor, 50 μM UQ-1
[6] = test system: NDH-2; assay type: biochemical; conditions: 50 μM
[7] = test system: V. cholerae 2010EL-1786; assay: microbe, parasite or virus in culture; assay type: cell-based; conditions: Vibrio cholerae
[8] = test system: V. cholerae 2012EL-2176; assay: microbe, parasite or virus in culture; assay type: cell-based; conditions: Vibrio cholerae
[9] = test system: V. cholerae O395; assay: In vitro infection of T84 human intestinal cells, CFU of adherent and planktonic bacteria; assay type: cell-based; conditions: Vibrio cholerae
[10] = test system: cholera toxin; assay: microbe, parasite or virus in culture; assay type: cell-based, Vibrio cholerae
[11] = test system: wildtype V. cholerae membranes; assay type: biochemical; conditions: 50 μM
[12] = test system: NDH-2; assay type: biochemical; conditions: 50 μM; remark: listed apart in the source
[13] = human
[14] = single oral dose 25 mg/kg, M. tuberculosis infection model ref 31; cited from earlier work
[15] = cited from earlier work

## CC1(C)S[C@@H]2[C@H](NC(=O)[C@H](N)c3ccccc3)C(=O)N2[C@H]1C(=O)O [ampicillin]
[1]
  survival of infected mice: almost twice

## OCCN1CCN(CCCN2c3ccccc3Sc3ccc(Cl)cc32)CC1 [perphenazine]
[2]; 50 μM
  inhibition at 50 µM: 20 to 40%

## CN1CCN(CCCN2c3ccccc3Sc3ccc(C(F)(F)F)cc32)CC1 [trifluoperazine]
[2]; 50 μM
  inhibition at 50 µM: 20 to 40%

## CSc1ccc2c(c1)N(CCC1CCCCN1C)c1ccccc1S2 (centres unmarked) [thioridazine]
[3]
  effect on growth of V. cholerae: strong inhibitory effects
[3]; Vibrio cholerae
  MIC50: 27 ± 2 µM (≈ 10 µg/mL)
[4]
  inhibition of respiratory activity with NADH: strong inhibitors
[5]
  respiratory activity with ubiquinol-1: not sensitive
[6]
  inhibition of NDH-2 activity in membranes: insensitive

## CC(CN1c2ccccc2Sc2ccccc21)N(C)C (centres unmarked) [promethazine]
[2]; 50 μM
  inhibition at 50 µM: 20 to 40%

## CN(C)CCCN1c2ccccc2Sc2ccc(Cl)cc21 [chlorpromazine]
[3]
  effect on growth of V. cholerae: antimicrobial properties
[2]
  inhibition at 50 µM: 20 to 40%

## CN1CCN(CCCN2c3ccccc3Sc3ccc(Cl)cc32)CC1 [prochlorperazine]
[3]
  effect on growth of V. cholerae: strong inhibitory effects
[3]; Vibrio cholerae
  MIC50: 24 ± 3 µM (≈ 8.97 µg/mL)

## CC(C)/N=c1\cc2n(-c3ccc(Cl)cc3)c3ccccc3nc-2cc1Nc1ccc(Cl)cc1 [clofazimine]
[3]
  effect on growth of V. cholerae: strong inhibitory effects
[3]; Vibrio cholerae
  MIC: 5 µM (≈ 2.37 µg/mL)
  MIC50: 3.4 ± 0.2 µM (≈ 1.61 µg/mL)
[7]
  MIC: 16 µM (≈ 7.57 µg/mL)
[8]
  MIC: 16 µM (≈ 7.57 µg/mL)
[9]; O395, T84, read-out: inhibition of the number of attached cells
  inhibition at 30 µM: > 75%
[9]; O395, T84, read-out: inhibition of the number of planktonic cells
  inhibition at 30 µM: > 90%
[10]; 30 µM
  inhibition of cholera toxin production: 92%
[10]; Vibrio cholerae, read-out: inhibition of cholera toxin production
  inhibition at 30 µM: 95%
[1]
  survival of infected mice: to the same extent as ampicillin
[4]
  inhibition of respiratory activity with NADH: strong inhibitors
[5]
  respiratory activity with ubiquinol-1: not sensitive
[6]
  inhibition of NDH-2 activity in membranes: insensitive
[11]
  sensitivity of activity of wildtype membranes: sensitive
[12]
  sensitivity of NADH-dependent ubiquinol reductase activity of Δnqr membranes: insensitive
[2]
  inhibition at 50 µM: 95%
[13]
  estimated concentration that can reach the proximal section of the small intestine: around 150 μM
[14]
  peak serum concentration: 0.43 µg/mL
[15]
  concentration in plasma: submicromolar range
